# Measured values: US20230357248A1, “PYRROLOPYRIMIDINE COMPOUND AS BTK INHIBITOR AND USE THEREOF” (MEDSHINE DISCOVERY INC., priority 2019, published 2023)
# Assays:
# BTK^C481S = BTK^C481S (Homo sapiens (Human), UniProt Q06187, C481S); experiment: BTK enzyme activity assay; assay type: biochemical; details: 200 μM ATP; 33P-ATP, filter-binding method
# Method: The specific assay process of BTK enzyme activity assay is as follows: Buffer: 20 mM 2-[4-(2-hydroxyethyl)-1-piperazinyl]ethanesulfonic acid (Hepes) (pH 7.5), 10 mM magnesium chloride, 1 mM ethylenebis(oxyethylenenitrilo)tetraacetic acid (EGTA), 0.02% polyoxyethylene dodecyl ether (Brij35), 0.02 mg/mL BSA, 0.1 mM sodium vanadate (Na3VO4), 2 mM dithiothreitol (DTT), 1% DMSO, 200 μM adenosine triphosphate (ATP). • 1. The substrate was prepared in freshly prepared reaction buffer; • 2. The required cofactor was added to the above-mentioned substrate solution; • 3. The kinase BTK^C481S was added to the above-mentioned substrate solution and mixed well; • 4. The compound dissolved in DMSO was added to the kinase reaction mixture by Echo550 (Acoustic technology; nanoliter range), and the mixture was incubated at room temperature for 20 minutes; • 5. ^33P-ATP (specific radioactivity of 10 μCi/μL) was added to the reaction mixture to initiate the reaction; • 6. The mixture was incubated at room temperature for 2 hours; • 7. The radioactivity was detected by filter-binding method; • 8. Kinase activity data represented the percentage of remaining kinase activity in the assay sample compared to the vehicle (dimethyl sulfoxide) reaction.
# TMD8 cells = experiment: BTK cell activity assay (CellTiter Glo); assay type: cell-based; details: Homo sapiens, Cell Titer Glo, read-out: Relative IC50
# Method: 1. Cell Culture and Passage
# The medium, trypsin and 1×PBS used in the cell passage process were preheated in a 37° C. water bath. The supernatant was aspirated.
# 1 mL of trypsin was added to rinse, and the rinse solution was aspirated. 1 mL of trypsin was added, respectively, and cells were digested at 37° C. until the cells fell off. 10 mL of culture medium was added and mixed well. The mixture was centrifuged at 1000 rpm for 5 min and the cells were resuspended in 10 mL of culture medium. 0.7 mL of cell suspension was pipetted into a counting cup and counted on ViCell XR to respectively obtain a cell density of 0.327 million/mL. 1.17 mL of cell suspension and culture medium were weighed, respectively, to dilute the cell suspension. According to the microplate layout diagram below, 100 μL of phosphate buffer was added to the peripheral wells of the 384-well microplate, and 40 μL of cell suspension was added to other wells, respectively. The cell plate was then cultured in an incubator.
# 2. Dosing • (1) Preparation of compound:
# A 9 μL dilution of the compound to be assayed was added to a shallow-well plate for Pod (Labcyte, #LP-0200). The shallow-well plate was centrifuged at 2500 rpm for 30 s. • (2) The cell plate was removed from the incubator. • (3) According to the microplate layout diagram below, compounds were serially diluted 3-fold in Pod to obtain 10 concentrations. The diluted compounds were added to the cell plate at 100 nL, respectively, and then the cell plate was returned to the incubator for culture. • 3. At Day 0, 20 μL of CellTiter Glo was added to the plate with DMSO added, and the mixture was shaken in the dark for 10 minutes. The plate was read with Envision. • 4. At Day 5: CTG was added and the plate was read. • (1) After being cultured for 72 h, 20 μL of Cell Titer Glo was added to the cell plate, and the mixture was shaken in the dark for 10 minutes. • (2) The plate was read with Envision.
# Assay Results • 1. Average value and standard deviation of 0% inhibition (DMSO well, MAX) and 100% inhibition (day 0, DMSO) in each group were calculated; • 2. […]
# Sequence of BTK^C481S (Q06187 whole entry C481S): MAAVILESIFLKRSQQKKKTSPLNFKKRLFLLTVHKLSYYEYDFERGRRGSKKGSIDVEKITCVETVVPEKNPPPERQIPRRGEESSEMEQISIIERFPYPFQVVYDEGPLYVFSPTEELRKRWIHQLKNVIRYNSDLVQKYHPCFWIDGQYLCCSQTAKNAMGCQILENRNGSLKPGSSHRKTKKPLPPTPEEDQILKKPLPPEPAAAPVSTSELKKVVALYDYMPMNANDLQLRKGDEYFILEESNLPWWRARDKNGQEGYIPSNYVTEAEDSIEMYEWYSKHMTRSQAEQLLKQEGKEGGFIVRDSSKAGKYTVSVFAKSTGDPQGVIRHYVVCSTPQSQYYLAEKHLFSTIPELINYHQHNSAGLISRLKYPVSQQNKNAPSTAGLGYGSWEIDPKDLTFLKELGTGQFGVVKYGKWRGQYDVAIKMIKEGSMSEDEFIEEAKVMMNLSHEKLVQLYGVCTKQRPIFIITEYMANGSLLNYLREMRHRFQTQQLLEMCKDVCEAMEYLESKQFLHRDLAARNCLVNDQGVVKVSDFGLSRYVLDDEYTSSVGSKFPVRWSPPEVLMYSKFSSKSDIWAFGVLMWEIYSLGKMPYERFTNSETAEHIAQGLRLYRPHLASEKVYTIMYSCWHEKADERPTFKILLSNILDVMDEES
Structure (SMILES),IC50 (BTK^C481S) [nM],IC50 (TMD8 cells) [nM]
CO[C@@H]1C[C@@H](CO)OC[C@@H]1Nc1ncnc2[nH]cc(C(=O)c3ccc(Oc4ccccc4)cc3F)c12 [Compound 10],14.9,
CO[C@@H]1C[C@@H](CO)OC[C@@H]1Nc1ncnc2[nH]cc(C(=O)c3ccc(Oc4ccccc4F)cc3Cl)c12 [Compound 12],39.8,
CO[C@@H]1C[C@@H](CO)OC[C@@H]1Nc1ncnc2[nH]cc(C(=O)c3ccc(Oc4ccccc4)cc3C)c12 [Compound 9],15.2,
N#CC[C@@H]1CC[C@@H](Nc2ncnc3[nH]cc(C(=O)c4ccc(Oc5ccccc5)cc4Cl)c23)CO1 [Compound 6],6.5,
O=C(c1ccc(Oc2ccccc2)cc1Cl)c1c[nH]c2ncnc(N[C@H]3CO[C@H](CO)CC3(F)F)c12 [Compound 2],12.5,269
N#C[C@@H]1CC[C@@H](Nc2ncnc3[nH]cc(C(=O)c4ccc(Oc5ccccc5)cc4Cl)c23)CO1 [Compound 5],10.7,

# Continued, in another order:
IC50 (BTK^C481S) [nM],Structure (SMILES),IC50 (TMD8 cells) [nM]
43.6,CO[C@H]1C[C@@H](CO)OC[C@@H]1Nc1ncnc2[nH]cc(C(=O)c3ccc(Oc4ccccc4)cc3Cl)c12 [Compound 7],
8.9,O=C(c1ccc(Oc2ccccc2)cc1Cl)c1c[nH]c2ncnc(N[C@H]3CO[C@H](CO)C[C@H]3OCCO)c12 [Compound 8],
1.7,O=C(c1ccc(Oc2ccccc2)cc1Cl)c1c[nH]c2ncnc(N[C@H]3CO[C@H](CO)C4CC43)c12 (stereo partly shown) [Compound 1],
6.7,O=C(c1ccc(Oc2ccccc2)cc1Cl)c1c[nH]c2ncnc(N[C@H]3CO[C@H](CO)C[C@@H]3F)c12 [Compound 3],217
15.1,[2H]C([2H])([2H])O[C@@H]1C[C@@H](CO)OC[C@@H]1Nc1ncnc2[nH]cc(C(=O)c3ccc(Oc4ccccc4)cc3Cl)c12 [Compound 13],
